In brackets after ≈: the same amount, converted by molar mass.
Tests used:
Staphylococcus aureus [1] = experiment: Antibacterial activity against Staphylococcus aureus ATCC 25923 after 18 hrs by microdilution method; format: functional; conditions: ATCC 25923, 18 h
Escherichia coli = experiment: Antibacterial activity against Escherichia coli ATCC 25922 after 18 hrs by microdilution method; format: functional; conditions: ATCC 25922, 18 h
Staphylococcus aureus [2] = experiment: Antibacterial activity against methicillin resistant Staphylococcus aureus isolate 5 after 18 hrs by microdilution method; format: functional; conditions: isolate 5, 18 h
Staphylococcus aureus [3] = experiment: Antibacterial activity against methicillin resistant Staphylococcus aureus isolate 2 after 18 hrs by microdilution method; format: functional; conditions: isolate 2, 18 h
[4] = system: Staphylococcus epidermidis; experiment: Antibacterial activity against Staphylococcus epidermidis ATCC 12228 after 18 hrs by microdilution method; format: functional; conditions: ATCC 12228, 18 h
Staphylococcus aureus [5] = experiment: Antibacterial activity against Staphylococcus aureus ATCC 4163 after 18 hrs by microdilution method; format: functional; conditions: ATCC 4163, 18 h
Staphylococcus aureus [6] = experiment: Antibacterial activity against methicillin resistant Staphylococcus aureus isolate 4 after 18 hrs by microdilution method; format: functional; conditions: isolate 4, 18 h
[7] = system: Staphylococcus epidermidis; experiment: Antibacterial activity against Staphylococcus epidermidis ATCC 49134 after 18 hrs by microdilution method; format: functional; conditions: ATCC 49134, 18 h
Staphylococcus aureus [8] = experiment: Antibacterial activity against methicillin resistant Staphylococcus aureus isolate 1 after 18 hrs by microdilution method; format: functional; conditions: isolate 1, 18 h
Staphylococcus aureus [9] = experiment: Antibacterial activity against Staphylococcus aureus ATCC 6538 after 18 hrs by microdilution method; format: functional; conditions: ATCC 6538, 18 h
Pseudomonas aeruginosa = experiment: Antibacterial activity against Pseudomonas aeruginosa NCTC 6749 after 18 hrs by microdilution method; format: functional; conditions: NCTC 6749, 18 h
Staphylococcus aureus [10] = experiment: Antibacterial activity against methicillin resistant Staphylococcus aureus isolate 3 after 18 hrs by microdilution method; format: functional; conditions: isolate 3, 18 h
[11] = Octanol-water partition coefficient, logP of the compound after 1 hr by UV-vis spectrophotometric analysis; format: physicochemical
[12] = Solubility in water at pH 7 by UV-vis spectrophotometric analysis; format: physicochemical

SMILES	MIC (Staphylococcus aureus [1]) [µg/mL]	MIC (Escherichia coli) [µg/mL]	MIC (Staphylococcus aureus [2]) [µg/mL]	MIC (Staphylococcus aureus [3]) [µg/mL]	MIC [4] [µg/mL]	MIC (Staphylococcus aureus [5]) [µg/mL]	MIC (Staphylococcus aureus [6]) [µg/mL]	MIC [7] [µg/mL]	MIC (Staphylococcus aureus [8]) [µg/mL]	MIC (Staphylococcus aureus [9]) [µg/mL]	MIC (Pseudomonas aeruginosa) [µg/mL]	MIC (Staphylococcus aureus [10]) [µg/mL]	logP at 1 h [11]	solubility [12] [µg/mL]
CO[C@H]1/C=C/O[C@@]2(C)Oc3c(C)c(O)c4c(O)c(c(C=O)c(O)c4c3C2=O)NC(=O)/C(C)=C\C=C\[C@H](C)[C@H](O)[C@@H](C)[C@@H](O)[C@@H](C)[C@H](OC(C)=O)[C@@H]1C	> 2	> 2	> 2	> 2	1 (≈ 1.38 µM)	2 (≈ 2.76 µM)	> 2	1 (≈ 1.38 µM)	> 2	> 2	> 2	> 2	–	–
CO[C@H]1/C=C/O[C@@]2(C)Oc3c(C)c(O)c4c(O)c(c(CN[C@@H](Cc5ccccc5)C(=O)OC(C)(C)C)c(O)c4c3C2=O)NC(=O)/C(C)=C\C=C\[C@H](C)[C@H](O)[C@@H](C)[C@@H](O)[C@@H](C)[C@H](OC(C)=O)[C@@H]1C	1 (≈ 1.07 µM)	> 2	0.5 (≈ 0.537 µM)	–	0.125 (≈ 0.134 µM)	0.5 (≈ 0.537 µM)	0.5 (≈ 0.537 µM)	0.25 (≈ 0.269 µM)	0.5 (≈ 0.537 µM)	0.5 (≈ 0.537 µM)	> 2	–	2.66	30 (≈ 32.2 µM)
CCOC(=O)[C@H](CCCCN)NCc1c2c(O)c3c(O)c(C)c4c(c3c1O)C(=O)[C@@](C)(O/C=C/[C@H](OC)[C@@H](C)[C@@H](OC(C)=O)[C@H](C)[C@H](O)[C@H](C)[C@@H](O)[C@@H](C)/C=C/C=C(/C)C(=O)N2)O4	> 2	–	–	> 2	0.5 (≈ 0.566 µM)	2 (≈ 2.26 µM)	–	1 (≈ 1.13 µM)	> 2	2 (≈ 2.26 µM)	–	> 2	2.2	120 (≈ 136 µM)
CCOC(=O)[C@H](Cc1ccc(O)cc1)NCc1c2c(O)c3c(O)c(C)c4c(c3c1O)C(=O)[C@@](C)(O/C=C/[C@H](OC)[C@@H](C)[C@@H](OC(C)=O)[C@H](C)[C@H](O)[C@H](C)[C@@H](O)[C@@H](C)/C=C/C=C(/C)C(=O)N2)O4	2 (≈ 2.18 µM)	> 2	0.5 (≈ 0.544 µM)	–	0.063 (≈ 0.0686 µM)	0.5 (≈ 0.544 µM)	0.5 (≈ 0.544 µM)	0.125 (≈ 0.136 µM)	0.5 (≈ 0.544 µM)	0.5 (≈ 0.544 µM)	> 2	–	1.92	50 (≈ 54.4 µM)
COC(=O)[C@H](Cc1ccc(O)cc1)NCc1c2c(O)c3c(O)c(C)c4c(c3c1O)C(=O)[C@@](C)(O/C=C/[C@H](OC)[C@@H](C)[C@@H](OC(C)=O)[C@H](C)[C@H](O)[C@H](C)[C@@H](O)[C@@H](C)/C=C/C=C(/C)C(=O)N2)O4	1 (≈ 1.1 µM)	> 2	0.5 (≈ 0.552 µM)	1 (≈ 1.1 µM)	0.063 (≈ 0.0696 µM)	0.5 (≈ 0.552 µM)	0.5 (≈ 0.552 µM)	0.125 (≈ 0.138 µM)	0.5 (≈ 0.552 µM)	0.5 (≈ 0.552 µM)	> 2	1 (≈ 1.1 µM)	1.88	60 (≈ 66.3 µM)
COC(=O)[C@H](Cc1ccccc1)NCc1c2c(O)c3c(O)c(C)c4c(c3c1O)C(=O)[C@@](C)(O/C=C/[C@H](OC)[C@@H](C)[C@@H](OC(C)=O)[C@H](C)[C@H](O)[C@H](C)[C@@H](O)[C@@H](C)/C=C/C=C(/C)C(=O)N2)O4	0.125 (≈ 0.141 µM)	> 2	0.063 (≈ 0.0709 µM)	–	0.031 (≈ 0.0349 µM)	0.063 (≈ 0.0709 µM)	0.063 (≈ 0.0709 µM)	0.031 (≈ 0.0349 µM)	0.125 (≈ 0.141 µM)	0.063 (≈ 0.0709 µM)	> 2	–	2.47	70 (≈ 78.7 µM)
COC(=O)[C@H](Cc1cnc[nH]1)NCc1c2c(O)c3c(O)c(C)c4c(c3c1O)C(=O)[C@@](C)(O/C=C/[C@H](OC)[C@@H](C)[C@@H](OC(C)=O)[C@H](C)[C@H](O)[C@H](C)[C@@H](O)[C@@H](C)/C=C/C=C(/C)C(=O)N2)O4	1 (≈ 1.14 µM)	–	–	1 (≈ 1.14 µM)	0.25 (≈ 0.284 µM)	0.25 (≈ 0.284 µM)	–	0.125 (≈ 0.142 µM)	0.5 (≈ 0.569 µM)	0.25 (≈ 0.284 µM)	–	1 (≈ 1.14 µM)	1.72	150 (≈ 171 µM)

Source: ChEMBL document CHEMBL3797048, “Structure-activity relationship studies of new rifamycins containing l-amino acid esters as inhibitors of bacterial RNA polymerases” (Eur J Med Chem, 2016)
